Laboratory results reported in patent US11440932B2, “Surfactant compounds-clips for extraction and stabilization in solution of membrane proteins” (CENTRE NATIONAL DE LA RECHERCHE SCIENTIFIQUE, priority 2017, dated 2022).

Biological target: T1, BmrA (Bacillus subtilis, UniProt O06967)
T1 construct: His tag; made in house; host or cells: E. coli C41(DE3)
Assay: ATPase activity of BmrA after addition of detergents
Format: biochemical, bacterial; produced in E. coli C41 DE3
Conditions: at extracting concentrations; relative to protein without compound
Protocol: FIG. 7 depicts the effect of the detergents of the invention on the functionality of BmrA (ATPase activity, %). The membrane fraction enriched in BmrA (˜25%) diluted to 2 g/l has the compounds added to it at the concentrations (mM) indicated (panel A, from top to bottom: 3.7e 10.7 mM, 3.7e 8.6 mM, 3.7e 6.4 mM, 3.7e 4.3 mM, 3.7e 2.2 mM, 3.7e 1.1 mM, 3.7d 4 mM, 3.7d 3 mM, 3.7d 2 mM, 3.7d 1 mM, 3.7d 0.8 mM, 3.7d 0.6 mM, 3.7d 0.05 mM, 3.7d 0.03 mM, 3.7d 0.02 mM, 3.7c 13 mM, 3.7c 10.4 mM, 3.7c 10 mM, 3.7b 1.5 mM, 3.7b 0.7 mM, 3.7b 0.5 mM, 2.3gNa2 20.5 mM, 2.3gK2 19.3 mM, 2.3f 21.1 mM, 2.3e 22 mM, 2.3d 23.2 mM, 2.3a 3.2 mM, 1.5a 22 mM, DDM 20 mM, DDM 2 mM, DDM 10 mM, DOM 2 mM, DDM 1 mM, LMNG 10 mM, LMNG 1 mM, LMNG 0.1 mM, LMNG 0.01 mM, FA3 27 mM, FA3 9 mM, FA3 2 mM, FA3 1 mM, TX100 16 mM; panel B from top to bottom: compounds of the invention 5.3d 3.2 mM, 5.3c 3.3 mM, 5.3b 11.7 mM, 5.3b 2.9 mM, 5.3a 3 mM, 4.6c 14.6 mM, 4.6b 15.2 mM, 4.5c 18.6 mM, 4.5b 19.6 mM, 3.9a 8 mM, 3.9a 0.51 mM, 3.9a 0.31 mM, 3.9a 0.11 mM, 3.7l 12.01 mM, 3.7l 6.01 mM, 3.7l 3 mM, 3.7l 1 mM, 3.7k 10 mM, 3.7k 3 mM, 3.7j 3 mM, 3.7j 2 mM, 3.7j 1 mM, 3.7j 0.6 mM, 3.7j 0.03 mM, 3.7j 0.02 mM, 3.7j 1 mM, 3.7i 0.3 mM, 3.7h 3 mM, 3.7h 2 mM, 3.7h 1 mM, 3.7h 0.6 mM, 3.7h 0.58 mM, 3.7h 0.5 mM, 3.7h 0.35 mM, 3.7h 0.1 mM, 3.7h 0.5 mM, 3.7h 0.35 mM, 3.7h 0.1 mM, 3.7h 0.05 mM, 3.7h 0.03 mM, 3.7h 0.02 mM, 3.7g 12.5 mM, 3.7g 9 mM, 3.7g 7.5 mM, 3.7g 5 mM, 3.7g 3 mM, 3.7g 1 mM, 3.7f 3.2 mM, 3.7f 2 mM, 3.7f 1 mM, 3.7f 0.061 mM, 3.7f 0.031 mM, 3.7f 0.015 mM). After incubation for 2 h at 4° C., the ATPase activity is measured. The solutions are subsequently centrifuged for 1 h at 4° C., 100 000×g, and the supernatants deposited on 10% SDS-PAGE (cf. FIG. 8). The gray and black histograms correspond to the concentrations at which BmrA is partially (gray) or entirely (black) extracted, according to these SDS-PAGE. The ATPase activity is in % relative to that of the protein without compound, 0.7 μmol ATP hydrolyzed/min/mg of proteins.
The molecules of the invention which extract BmrA in the previous example were tested at different sub-solubilizing and solubilizing concentrations, to evaluate their impact on the native and functional state of the protein. The latter is monitored by the hydrolysis of ATP which is carried out by the protein during the transport cycle, coupled with translocation of the solute. As reported previously (Matar-Merheb, R. et al. ([11])), the ATPase activity of BmrA is a highly sensitive marker of the state of the protein, the latter being particularly sensitive to the detergents used during the extraction step, where said detergents replace the lipids on contact with the membrane protein.
Procedure. BmrA produced and enriched in the plasma membrane of E. coli C41 DE3 is prepared as described previously (Matar-Merheb, R. et al. ([11])). The membranes are diluted at 2 g/l in a 20 mM Tris-HCl buffer, pH 8.0, 100 mM NaCl, 15% glycerol, with protease inhibitors (Roche) added thereto at an amount of one tablet/100 ml. The mixture (T) is incubated for 2 h at 4° C. and the ATPase activity is measured using the coupled-enzyme system, separating off the vanadate-insensitive activity from the total activity, Centeno, F. et al. Expression of the sarcoplasmic reticulum Ca^2+-ATPase in yeast. FEBS Lett 354, 117-122 (1994) ([25])). The solutions are subsequently centrifuged for 1 h at 4° C. at 100 000×g in order to separate the extracted fraction (supernatant, S) from that which is not extracted (pellet). The supernatants are deposited on 10% SDS-PAGE and stained with Coomassie blue after migration (FIG. 8). DDM, LMNG (Chae, P. S. et al. ([6])), TritonX100 and FA3 (Lee, S. C. et al. (2013) ([9])) are tested as reference detergents. The DDM and LMNG originate from Anatrace, the Triton X100 originates from Sigma-Aldrich and the FA3 from Avanti-Polars.

T1 sequence (O06967 whole entry): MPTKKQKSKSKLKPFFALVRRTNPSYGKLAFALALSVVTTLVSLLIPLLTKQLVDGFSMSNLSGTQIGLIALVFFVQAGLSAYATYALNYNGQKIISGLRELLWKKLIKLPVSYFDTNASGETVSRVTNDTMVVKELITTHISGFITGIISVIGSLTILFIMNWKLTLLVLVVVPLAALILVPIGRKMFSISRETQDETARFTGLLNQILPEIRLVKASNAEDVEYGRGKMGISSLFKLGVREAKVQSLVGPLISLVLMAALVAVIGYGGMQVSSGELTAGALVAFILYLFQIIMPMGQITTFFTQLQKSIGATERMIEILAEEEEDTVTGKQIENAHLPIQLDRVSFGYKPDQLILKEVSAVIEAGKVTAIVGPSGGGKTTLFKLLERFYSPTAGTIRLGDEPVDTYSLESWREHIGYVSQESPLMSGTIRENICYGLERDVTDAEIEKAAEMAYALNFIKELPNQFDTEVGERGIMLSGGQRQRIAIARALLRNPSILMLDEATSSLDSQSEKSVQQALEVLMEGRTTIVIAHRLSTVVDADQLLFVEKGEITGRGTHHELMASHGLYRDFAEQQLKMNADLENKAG

SMILES	change of the ATPase activity of BmrA on extraction
CCCCCCCCCCCC(=O)N[C@@H](COCc1cn(CCO[C@@H]2OC(CO)[C@@H](O)C(O)C2O)nn1)C(=O)N[C@H](CCC(=O)O)C(=O)O (stereo partly drawn) [Compound 3.7b]	1.5 ×
CCCCCCCCCCCCCC(=O)N[C@@H](COCc1cn(CCO[C@@H]2OC(CO)[C@@H](O)C(O)C2O)nn1)C(=O)N[C@H](CCC(=O)O)C(=O)O (stereo partly drawn) [Compound 3.7c]	1.5 ×
CCCCCCCCCCCCCC(=O)N[C@@H](COCc1cn(CCO[C@@H]2OC(CO)[C@@H](O[C@H]3OC(CO)[C@@H](O)C(O)C3O)C(O)C2O)nn1)C(=O)N[C@H](CCC(=O)O)C(=O)O (stereo partly drawn) [Compound 3.7e]	2 ×
CCCCCCCCCCCCCC(=O)N[C@@H](COCc1cn(CCOCCOCCOCCOCCOCCOC)nn1)C(=O)N[C@H](CCC(=O)O)C(=O)O [Compound 3.7g]	1.5 ×
CCCCCCCCCCCCC(CCCCCCCCCCCC)C(=O)N[C@@H](COCc1cn(CCO[C@@H]2OC(CO)[C@@H](O)C(O)C2O)nn1)C(=O)N[C@H](CCC(=O)O)C(=O)O (stereo partly drawn) [Compound 3.7j]	maintaining
CCCCCCCCCCCCCC(=O)N[C@@H](COCc1cn(CCO[C@@H]2OC(CO)[C@@H](O)C(O)C2O)nn1)C(=O)N[C@@H](CCC(=O)O)C(=O)NCC(=O)O (stereo partly drawn) [Compound 3.7l]	maintaining
